In patent publication US12653183B2, “Hygroscopic salt microencapsulation, and uses thereof” (priority 2020, dated 2026):

What was measured:
feral pigs [1] = conditions: cited from earlier work
feral pigs [2] = experiment: LD50 and time to death of 1080 in feral pigs; conditions: feral pigs vs wild dogs
[3] = pH<7

SMILES | time for pigs to die (feral pigs [1]) | multiple of the dose used for canid pests (feral pigs [2]) | stability of sodium nitrite in the bait composition [3]
O=C(O)CF [compound 1080, sodium fluoroacetate] | up to 12 hours | ≤ 40 fold | 
O=NO [sodium nitrite] |  |  | unstable
